Assay results from patent US20180325891A1, “OCTAHYDRO AZADECALIN FORMULATIONS” (Corcept Therapeutics, Inc., priority 2017, published 2018).

Assay: Solubility assessment of CORT125281 in various excipients
Format: physicochemical
Procedure: The solubility of the API was assessed in Labrasol, Kolliphor RH40, Kollisolv P124 and Kolliphor HS15 in order to assess scope for formulation alternatives. […] It is probable that these would be able to be solubilized given more time/energy input.

solubility of the API in excipient (in Kolliphor RH40): < 40 mg/g
solubility of the API in excipient (in Kollisolv P124): < 40 mg/g
Compound: Cn1ncc(S(=O)(=O)N2CC[C@H]3Cc4c(cnn4-c4ccc(F)cc4)C[C@]3(C(=O)c3cc(C(F)(F)F)ccn3)C2)n1 [CORT125281, ((4aR,8aS)-1-(4-fluorophenyl)-6-((2-methyl-2H-1,2,3-triazol-4-yl)sulfonyl)-4,4a,5,6,7,8,8a,9-octahydro-1H-pyrazolo[3,4-g]isoquinolin-4a-yl)(4-(trifluoromethyl)pyridin-2-yl)methanone]
solubility of the API in excipient, visual and microscopic analysis (Kolliphor HS15 mix): visibly clear, but upon microscopic analysis, they were found to contain a small number of API crystals
solubility of the API in excipient, visual and microscopic analysis (Labrasol mix): visibly clear, but upon microscopic analysis, they were found to contain a small number of API crystals
